The values below come from a melting point compilation (Tetko et al.; mined from patent text by program, amines drawn as free bases though some values may be those of a salt).

By melting point is commonly meant the temperature of the solid-liquid transition. Compound `O=c1cc(-c2ccc3ccccc3c2)[nH]c2ccccc12` had a melting point of 290 to 292 °C.

For `O=C(C=Cc1cccc(F)c1)c1cnc2sc3c(n12)CCCCC3`, the melting point was in the range of 176 to 177 °C.

The compound `CC1(N2C(=O)c3ccccc3S2(=O)=O)CCCNC1=O` (stereo unspecified) displayed a melting point of 211 to 215 °C.

`COc1nc(NC(=O)NS(=O)(=O)c2cccc3c2OS(=O)(=O)C(C)=C3)c(Cl)c(OC)n1` registered a melting point of 236 to 237 °C.

For `Cc1nc(C=O)c2n1-c1ccc(Cl)cc1C(c1ccccc1)=NC2`, the melting point lay within 218 to 220 °C.

On to `CC1(C)OC[C@H](Cc2ccccc2)N1C(=O)C(=O)c1ccn(-c2ccc(-c3ccccc3)cc2)c1`, for which the melting point lay in the range of 150 to 152 °C.

As to `O=C(O)C1CC(=O)N(c2ccc(O)cc2)C1` (stereo unspecified), the melting point is 201 to 204 °C.

As for `Cc1ccc(OCC2=NCCN2)c(C)c1NS(C)(=O)=O`, the melting point was 216 to 217 °C.

`CC[C@H](COCC#Cc1ccccc1)n1cnc2c(N)nc3ccccc3c21` displayed a melting point of 63 to 67 °C.

As to `CC1(C)OC(=O)Nc2ccc(-c3cc(C#N)cc(OC(F)(F)F)c3)cc21`, the melting point is 227 to 228 °C.

`COc1ccc(N2CCOCC2)c2sc(NC(=O)N(C)C3CCCCCC3)nc12` returned a melting point of 198 to 200 °C.

Compound `CC(=O)Nc1nc(C(F)(F)F)ns1` showed a melting point of 178 °C.

In turn, `Cc1ccc2cccc(OCc3cccc(NC(=O)CN4C(=O)c5ccccc5C4=O)c3C)c2n1` had a melting point of 283 to 285 °C.

`Cn1cc(C=CC(=O)NCCO)c([N+](=O)[O-])n1` yielded a melting point of 176 to 178 °C.

`CC(C)c1ccc(N(Cc2cnn(Cc3cccs3)c2)C(=O)C2CCCc3c(O)cccc32)cn1` (stereo unspecified) returned a melting point of 125 to 129 °C.

`CCOC(=O)c1cc(NC(=O)c2ccc(Cl)cc2Cl)ccc1Oc1cncc(Cl)c1`: the melting point fell in the range of 125 to 127 °C.

Regarding `CCOc1ccccc1C1(O)C(=O)Nc2cc(C)c(Cl)cc21` (stereo unspecified), the melting point is 253 °C.

Regarding `C[C@]12CC[C@@H]3C4=C(CC[C@H]3[C@@H]1CCC21CC(O)CO1)CC(=O)CC4` (stereo partly specified), the melting point lay in the range of 118 to 123 °C.

Compound `COc1ccc(-c2ccc(C(=O)O)cc2)cc1F` yielded a melting point of 253 °C.

Compound `Clc1cccc(N2CCN(CCCOc3ccc4cn[nH]c4c3)CC2)c1Cl` showed a melting point of 159 to 161 °C.

Compound `CONC(=O)c1cc(C(=O)OC)c2cc(Cc3ccc(F)cc3)cnc2c1O` showed a melting point of 186 to 188 °C.

`CC#CC(=O)N[C@H]1CC[C@H](CCN2CCC(c3cccc4c3CCO4)CC2)CC1` displayed a melting point of 195 °C.

`CNC(=O)N(O)C(C)C#Cc1ccc(C(C)C)cc1` (stereo unspecified): the melting point fell in the range of 146 to 147 °C.

The compound `CCCc1c(OCC(O)COc2ccc3c(=O)cc(CCC(=O)O)oc3c2CCC)ccc(C(C)=O)c1O` (stereo unspecified) displayed a melting point of 79 to 80 °C.

On to `O=C1C(=O)c2ccccc2C2=C1SCC1(CCN(C(=O)c3ccco3)CC1)O2`, for which the melting point was determined as 165 °C.

In turn, `Cc1ccc(C(=O)N2CCc3nnc(NN=C4CCCCC4)cc3C2)cc1` registered a melting point of 208 to 210 °C.

In turn, `C1=CC2=C(CCCC2)n2c3c(c4cnccc42)CCC=C13` came in with a melting point of 134 to 137 °C.

On to `CCCCCC1(C)OCc2c1cnc(C)c2OCC(=O)O` (stereo unspecified), for which the melting point was 211 °C.

For `CCCCCCCCCCCCCCCCNC(=O)Nc1sc(C(=O)O)c(C)c1C(=O)OC(C)(C)C`, the melting point lay in the range of 188 to 189 °C.

Compound `CC1(C)CC(n2cc(C#N)c3ccccc32)c2cc(C#N)ccc2O1` (stereo unspecified) showed a melting point of 175 to 178 °C.

Compound `CCOC(=O)/C(N)=C/C(=O)/C=C/c1ccc(Cl)cc1` registered a melting point of 105 to 107 °C.

The compound `Cc1nn(C)c(S(N)(=O)=O)c1C(=O)OC(C)C` had a melting point of 120 to 122 °C.

In turn, `CCCN(CCC)C(=O)CNc1nc(-c2ccccc2)ncc1[N+](=O)[O-]` had a melting point of 142 to 143 °C.

In the case of `CNc1ccc(CCl)cc1[N+](=O)[O-]`, the melting point was in the range of 126 to 128 °C.

On to `CC(C)CCC1(c2ccccc2)CC(O)=C(Sc2ccccc2C(=O)O)C(=O)O1` (stereo unspecified), for which the melting point was in the range of 99 to 101 °C.

For `CNS(=O)(=O)Cc1ccc2[nH]cc(CCN=CNc3ccccc3)c2c1`, the melting point is 72 to 73 °C.

As for `CC(C)c1cccc(NC(=O)[C@H](Br)C(C)C)c1O`, the melting point was in the range of 108 to 109 °C.

Consider `CCN(CC)C(=O)c1cccc(OC)c1-c1ccccc1`, for which the melting point lay within 55 to 56 °C.

`CC1Nc2cccc3c(O)ccc(c23)S1(=O)=O` (stereo unspecified) yielded a melting point of 245 to 246 °C.

With `CCOC(=O)c1csc2cc(Oc3ccnc(N)n3)ccc12`, the melting point lay within 144 to 145 °C.

Compound `O=C1CCC(=O)N1CCS` yielded a melting point of 45 °C.

On to `COC1=CC[C@H]2[C@@H]3CCc4cc(OC)ccc4[C@H]3CC[C@]12C`, for which the melting point lay in the range of 90.5 to 93 °C.

Regarding `CCCCCCCCCC=[N+]([O-])CCCCCCCCCC`, the melting point fell in the range of 63 to 65 °C.

`CCCOC(C(Cc1ccc(Cl)cc1)n1cncn1)C1(C)COCOC1` (stereo unspecified) displayed a melting point of 94 to 96 °C.

The compound `CCCNCCc1ccc(NS(=O)(=O)c2ccc(Cl)cc2)cc1` came in with a melting point of 137 to 140 °C.

Turning to `O=Cc1cc(O)cc2cc(-c3ccc(O)cc3)oc12`, the melting point fell in the range of 261 to 263 °C.

`COc1ccc(Cn2nc(-n3cnn(Cc4ccc(F)cc4)c3=O)cc2C(=O)NCc2ccc(F)c(F)c2)cc1` came in with a melting point of 156 to 158 °C.

As to `Cc1ccnn1-c1ccc(Cl)c(Cl)c1`, the melting point is 46 to 47 °C.

With `Cc1cc(Cl)ccc1-c1nn(C(C)(C)C(=O)N(C)C)cc1C`, the melting point was in the range of 99 to 100 °C.

`N#CCc1c[nH]c2cnc(-n3cncn3)cc12` came in with a melting point of 218 to 220 °C.

On to `COc1cc2oc(=O)c3c(c2cc1OC)CCN(CC(C)=O)C3`, for which the melting point was in the range of 168 to 172 °C.

In the case of `COC(=O)c1cc(COc2c(OC)c3cocc(OC)c-3c2C(C)=O)ccc1COc1c(OC)c2cocc(OC)c-2c1C(C)=O`, the melting point was 87 to 89 °C.

`CC12CCC(O)CC1CCC1C2CCC2(C)C(C=NNC(=N)N)CCC12O` (stereo unspecified) had a melting point of 163 to 165 °C.

Turning to `CCc1cc(C(=O)c2ccccc2Cl)c(-n2c(C)nnc2CNC(=O)c2ccc(Cl)c(Cl)c2)s1`, the melting point lay within 151 to 152 °C.

Turning to `Cc1ccc(C)n1C(C)c1ncccc1F` (stereo unspecified), the melting point lay within 82 to 84 °C.

Take `Nc1ncc(-c2ccccc2COc2ccccc2)s1`: the melting point is 154 °C.

For the compound `Cc1nnc2n1-c1sc(C#CCn3c4c(c5ccccc53)CCCC4)cc1C(c1ccccc1Cl)=NC2`, the melting point is 164 to 166 °C.

With `C[Si]1(C)CCCCCCCCCC[Si](C)(C)O[Si](C)(C)CCCCCCCCCC[Si](C)(C)O1`, the melting point came to 90 °C.

For the compound `Cc1nc(-c2cccc3c2C2(COc4cc5c(cc42)OCCO5)C(=O)N3C)cs1` (stereo unspecified), the melting point is 219 to 220 °C.

On to `CC(C)CC(=O)Nc1cccc(-c2ccnc3c(-c4cccc(CN5CCN(C)CC5)c4)cnn23)c1`, for which the melting point fell in the range of 135 to 138 °C.

In turn, `COc1ccc(CN2CCc3cc(O)ccc3C2)cc1` came in with a melting point of 158 to 160 °C.

In turn, `COc1c(C=O)ccc(OCC(=O)O)c1Cc1ccc2c(Cl)cccc2c1` gave a melting point of 191 to 192 °C.

Compound `CCN(CC)CCN1C(=O)C(NC(=O)c2ccccc2)C(C)(C)SC1=S` (stereo unspecified) returned a melting point of 152 to 153 °C.

For `COc1cc(Nc2c(C#N)cnc3sc(C)cc23)c(Cl)cc1Cl`, the melting point lay within 179 to 181 °C.

In turn, `CC1=C(C)C(=O)C(CCCCO)=C(C)C1=O` came in with a melting point of 36 to 38 °C.

In the case of `COCc1c(C(=O)c2ccccc2)ncc2[nH]c3ccc(Oc4nccc5ccccc45)cc3c12`, the melting point was in the range of 159 to 160 °C.

In turn, `CC(=O)OC1OC(C)C(OCc2ccccc2)C(OCc2ccccc2)C1OCc1ccccc1` (stereo unspecified) displayed a melting point of 86 to 87.5 °C.

As for `CCc1ccc(C#Cc2ccc(Br)cc2)cc1`, the melting point came to 117 °C.

The compound `CNC(=O)N(N=Cc1ccccc1)c1nnc(C(C)(C)C)s1` yielded a melting point of 115 to 116 °C.

Turning to `CCCCOc1ccc(OCc2ccccc2)c(C(=O)O)c1`, the melting point was 79 to 82 °C.

The compound `COC(=O)c1c([N+](=O)[O-])cc(OC)c(OC)c1OC` returned a melting point of 74 to 76 °C.

`CCC(C)(C)OC(=O)NC(C)(Cc1c[nH]c2ccccc12)C(=O)NCCc1cccnc1` (stereo unspecified) gave a melting point of 95 to 105 °C.

On to `COc1ccc(C(=O)c2cccc(C(=O)O)c2)cc1`, for which the melting point is 183 to 186 °C.

On to `CCCCCc1c(OCc2ccccc2)ccc(C(C)=O)c1O`, for which the melting point fell in the range of 61 to 62 °C.

Compound `CC(C)(C)C(=O)Nc1ccc(Cl)cn1` showed a melting point of 51.4 to 53.4 °C.

In turn, `COC(=O)C(Cc1c[nH]c2ccccc12)NC(=S)c1ccc2c(c1)OCO2` (stereo unspecified) displayed a melting point of 129 to 130 °C.

As for `Cc1nc2c3c(c(CO)cn2c1C)CCC(c1ccccc1)C3` (stereo unspecified), the melting point was 290 to 292 °C.

Turning to `CCNn1c(C)nc(N2CCc3ccccc3CC2)c(C#N)c1=O`, the melting point lay within 172 to 174 °C.

Turning to `O=C(O)C(=O)CC(=O)c1cccn1Cc1ccc2ccccc2c1`, the melting point fell in the range of 160 to 162 °C.

In turn, `O=C(Nc1ccc(CNc2nc(Cl)nc3cc(I)ccc23)cc1)c1ccc(Cl)nc1` registered a melting point of 315 °C.

Turning to `CCCCn1c(O)nc2c(N)ncnc21`, the melting point was 222 to 224 °C.

In turn, `O=C1CC2(C(=O)N1)C(=O)N1CCCc3cc(Cl)cc2c31` (stereo unspecified) displayed a melting point of 268 to 269 °C.

Compound `Cc1sc(C)c(Cc2nc3c(F)c(F)cc(F)c3s2)c1CC#N` gave a melting point of 145 to 146 °C.

Compound `N#Cc1cc(NCc2cc3c(cc2O)CCO3)cs1` displayed a melting point of 138 to 139 °C.

Take `CC(C)(C)c1cc(OC(=O)N2CC(O)C2)cc(C(C)(C)C)c1`: the melting point fell in the range of 166 to 170 °C.

`COc1cc(Cc2cnc(N)nc2N)cc(-c2ccc(C=O)cc2)c1OC` returned a melting point of 99 °C.

The compound `Cc1nc(C(F)F)ccc1C(=O)C1=C(NS(=O)(=O)c2ccccc2)C(C)(C)C(=O)C(C)(C)C1=O` had a melting point of 130 °C.

Regarding `CCC(NC(=O)COc1c(C)cccc1C)C(N)=O` (stereo unspecified), the melting point lay in the range of 182 to 184 °C.

In the case of `Cc1cc(OCC(F)(F)F)c(N)c(OCC(F)(F)F)n1`, the melting point lay within 53.5 to 53.8 °C.

Take `O=C(O)c1ccn2c1C(C(=O)O)CCC2` (stereo unspecified): the melting point was 236 to 237 °C.

In turn, `c1cc(N2CCCC2)ccc1CC12CC3CC(CC(C3)C1)C2` yielded a melting point of 147 to 148 °C.
